Experiments:
[1] = tested on: Male ICR mice; assay: Analgesic activity test: mouse writhing test induced with phenyl-p-quinone; assay type: in vivo; conditions: ip, 0.5 h, 30 min before phenyl-p-quinone, read-out: Analgesic effect (%Inhibition); for inhibition in vivo at 1 mg/kg: Dose 1 mg/kg intraperitoneally
Experimental: 2. Analgesic activity test: Mouse writhing test by inducing with phenyl-p-quinone
Male ICR mice (mean body weight 25g) were maintained in a controlled lighting environment (12 h on/ 12 h off) for experiment. Animals received an intraperitoneal injection of 0.3ml of the chemical irritant phenyl-p-quinone (dissolved in saline containing 5% ethanol to be a dose of 4.5mg/kg) and 6 mins later, the number of abdominal constrictions was counted in the subsequent 6 mins period. Animals (10 animals/group) received 0.2ml of test compounds solution in vehicle of ethanol/Tween 80/saline (10/10/80) intraperitoneally 30 min before the injection of phenyl-p-quinone. A reduction in the number of writhes responding to the test drug compound relative to the number responding in saline control group was considered to be indicative of an analgesic effect. Analgesic effect was calculated by % inhibition equation (% inhibition=(C-T)/C x 100), wherein C and T represent the number of writhes in control and compound-treated group, respectively (Table 2).

[2] = target: T1, vanilloid receptor (Rattus norvegicus, UniProt O35433); assay: 45Ca influx test (calcium uptake) in primary cultured neonatal rat DRG neurons, capsaicin-stimulated; assay type: cell-based, SD rats; conditions: capsaicin 0.5 µM; for IC50: 45Ca 10 µCi/ml, 10 mins at room temperature, read-out: Antagonist Calcium Uptake Test (IC50)
T1 construct: DRG nerve cells from the primary culture of 2 days were equilibrated by washing 4 times; endogenous in cells; host or cells: primary culture of dorsal root ganglion (DRG) neurons from neonatal SD rats
Experimental: 1) Separation of spinal dorsal root ganglia (DRG) in newborn rats and primary culture thereof
Neonatal (2-3 day old or younger than 2-3 day old) SD rats were put in ice for 5 minutes to anesthetize and disinfected with 70% ethanol. DRG of all part of spinal cord were dissected (Wood et al., 1988, J. Neurosci. 8, pp3208-3220) and collected in DME/F12 medium to which 1.2g/l sodium bicarbonate, 50mg/l gentamycin were added. The DRG were incubated sequentially at 37°C for 30 min in 200 U/ml collagenase and 2.5mg/ml trypsin, separately. The gangiia were washed twice with DME/F12 medium supplemented with 10% horse serum, triturated through a fire-polished Pasteur pipette, filtered through Nitex 80 membrane to obtain single cell suspension and the suspension was washed once more. This was subjected to centrifugation, then resuspended in cell culture medium at certain level of cell density. As the cell culture medium, DME/F12 medium supplemented with 10% horse serum was diluted with identical medium conditioned by C6 glioma cells 2 days on a confluent monolayer (1:1), and NGF (Nerve Growth Factor) was added to adjust 200ng/ml as final concentration. After the cells were grown 2 days in medium where cytosine arabinoside (Ara-C, 100 µM) was added to kill dividing nonneuronal cells, medium was changed to one without Ara-C. The resuspended cells were plated at a density of 1500-2000 neurons/well onto Terasaki plates previously coated with 10 µg/ml poly-D-ornithine.
2) ^45 Ca influx experiments
DRG nerve cells from the primary culture of 2 days were equilibrated by washing 4 times with HEPES (10mM, pH 7.4)-buffered Ca ^2+, Mg^2+-free HBSS (H-HBSS). The solution in each well was removed from the individual well. Medium containing the test compound plus capsaicin (final concentration 0.5 µM) and ^45Ca (final concentration 10 µCi/ml) in H-HBSS was added to each well and incubated at room temperature for 10 mins. Terasaki plates were washed five times with H-HBSS and dried at room temperature. To each well, 0.3% SDS (10 µl) was added to elute ^45Ca. After the addition of scintillation cocktail of into each well, the amount of ^45Ca influx into neuron was measured by counting radioactivity. […] [Table 1] Results of Calcium Influx Test

T1 sequence (O35433 whole entry): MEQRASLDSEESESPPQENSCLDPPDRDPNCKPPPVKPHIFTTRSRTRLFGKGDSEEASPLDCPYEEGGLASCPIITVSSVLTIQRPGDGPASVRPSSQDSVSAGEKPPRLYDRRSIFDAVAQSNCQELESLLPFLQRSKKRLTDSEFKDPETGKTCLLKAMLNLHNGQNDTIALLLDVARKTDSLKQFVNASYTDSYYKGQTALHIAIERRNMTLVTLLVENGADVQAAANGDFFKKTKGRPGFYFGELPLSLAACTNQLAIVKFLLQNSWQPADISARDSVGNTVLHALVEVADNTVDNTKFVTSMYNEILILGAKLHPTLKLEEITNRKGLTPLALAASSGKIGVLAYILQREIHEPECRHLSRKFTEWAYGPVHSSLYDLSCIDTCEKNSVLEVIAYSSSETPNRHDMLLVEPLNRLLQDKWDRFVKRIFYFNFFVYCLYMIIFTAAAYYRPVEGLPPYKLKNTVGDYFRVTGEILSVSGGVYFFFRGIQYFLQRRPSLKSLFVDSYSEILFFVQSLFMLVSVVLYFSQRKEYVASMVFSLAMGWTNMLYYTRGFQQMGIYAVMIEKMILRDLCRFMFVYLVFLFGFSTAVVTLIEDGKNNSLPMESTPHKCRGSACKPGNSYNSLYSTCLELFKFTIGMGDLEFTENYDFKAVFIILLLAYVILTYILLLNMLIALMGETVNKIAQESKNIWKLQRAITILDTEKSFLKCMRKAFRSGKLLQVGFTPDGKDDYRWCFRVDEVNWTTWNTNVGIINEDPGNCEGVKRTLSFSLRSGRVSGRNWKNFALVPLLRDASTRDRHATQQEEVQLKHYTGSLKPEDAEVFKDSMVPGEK

IC50 [2] | SMILES | also measured
8.6 nM | CC(C)(C)c1ccc(OCC(=O)NCc2ccc(NS(C)(=O)=O)c(F)c2)cc1 [Example 2, 2-(4-tert-Butylphenoxy)-N-(3-fluoro-4-methanesulfonylaminobenzyl)acetamide] | inhibition in vivo at 0.3 mg/kg ([1]; Dose 0.3 mg/kg intraperitoneally): 51%
180 nM | CC(C)(C)c1ccc(OCC(=O)NCc2ccc(NS(C)(=O)=O)c(Cl)c2)cc1 [Example 3, 2-(4-tert-Butylphenoxy)-N-(3-chloro-4-methanesulfonylaminobenzyl)-acetamide] | inhibition in vivo at 1 mg/kg [1]: 39%
34 nM | C=Cc1cc(CNC(=O)COc2ccc(C(C)(C)C)cc2)cc(F)c1NS(C)(=O)=O [Example 5, 2-(4-tert-Butylphenoxy)-N-(3-fluoro-4-methanesulfonylamino-5-vinylbenzyl)acetamide] | inhibition in vivo at 1 mg/kg [1]: 59%
71 nM | C[C@@H](NC(=O)COc1ccc(C(C)(C)C)cc1)c1ccc(NS(C)(=O)=O)c(F)c1 [Example 12, (R)-2-(4-tert-Butylphenoxy)-N-[1-(3-fluoro-4-methanesuffonylaminophenyl)ethyl]acetamide] | inhibition in vivo at 1 mg/kg [1]: 27%
69 nM | CC(C)c1ccc(OCC(=O)NCc2ccc(NS(C)(=O)=O)c(F)c2)cc1 [Example 52, N-(3-Fluoro-4-methanesulfonylaminobenzyl)-2-(4-isopropylphenoxy)acetamide] | inhibition in vivo at 1 mg/kg [1]: 49%
120 nM | CC(C)(C)c1ccc(OCC(=NC#N)NCc2ccc(NS(C)(=O)=O)c(F)c2)cc1 [Example 18, 2-(4-tert-Butylphenoxy)-N-(3-fluoro-4-methanesulfonylaminobenzyl)-N'-cyanoacetamidine] | inhibition in vivo at 1 mg/kg [1]: 33%
74 nM | CCC(C)c1ccc(OCC(=O)NCc2ccc(NS(C)(=O)=O)c(F)c2)cc1 (stereo not drawn) [Example 53, N-(3-Fluoro-4-methanesulfonylaminobenzyl)-2-(4-sec-butylphenoxy)acetamide] | inhibition in vivo at 1 mg/kg [1]: 49%
1300 nM | CS(=O)(=O)Nc1ccc(CNC(=O)COc2ccc(C(F)(F)F)cc2)cc1F [Example 24, N-(3-Fluoro-4-methanesulfonylamino-benzyl)-2-(4-trifluoromethylphenoxy)-acetamide] | inhibition in vivo at 10 mg/kg ([1]; Dose 10 mg/kg intraperitoneally): 28%
> 10000 nM | CC(C)(Oc1ccc(C(F)(F)F)cc1)C(=O)NCc1ccc(NS(C)(=O)=O)c(F)c1 [Example 23, N-(3-Fluoro-4-methanesulfonylamino-benzyl)-2-methyl-2-(4-trifluoromethyl-phenoxy)-propionamide] | 
> 10000 nM | COc1cc(Cl)ccc1OCC(=O)NCc1ccc(NS(C)(=O)=O)c(F)c1 [Example 32, 2-(4-Chloro-2-methoxy-phenoxy)-N-(3-fluoro-4methanesulfonylamino-benzyl)-acetamide] | 
4500 nM | CS(=O)(=O)Nc1ccc(CNC(=O)COc2cccc(-c3ccccc3Cl)c2)cc1F [Example 61, 2-(2'-Chloro-biphenyl-3-yloxy)-N-(3-fluoro-4-methanesulfonylaminobenzyl)-acetamide] | 
 | CS(=O)(=O)Nc1ccc(CNC(=O)COc2ccc3c(c2)CCC3)cc1F [Example 62, N-(3-Fluoro-4-methanesulfonylaminobenzyl)-2-(indan-5-yloxy)acetamide] | Antagonist Calcium Uptake Test (% @ 10 µM) ([2]; 10 µM test compound): 82% @ 10 µM
> 10000 nM | CS(=O)(=O)Nc1ccc(CNC(=O)COc2ccc(Cl)c(F)c2)cc1F [Example 59, N-(3-Fluoro-4-methanesulfonylaminobenzyl)-2-(4-chloro-3-fluorophenoxy)acetamide] | 
> 10000 nM | CS(=O)(=O)Nc1ccc(CNC(=O)COc2ccc(F)c(F)c2)cc1F [Example 54, N-(3-Fluoro-4-methanesulfonylaminobenzyl)-2-(3,4-difluorophenoxy)acetamide] | 
160 nM | C[C@@H](Oc1ccc(C(C)(C)C)cc1)C(=O)NCc1ccc(NS(C)(=O)=O)c(F)c1 [Example 13, (R)-2-(4-tert-Butylphenoxy)-N-(3-fluoro-4-methanesulfonylaminobenzyl)propionamide] | 
> 10000 nM | COc1cc(C)ccc1OCC(=O)NCc1ccc(NS(C)(=O)=O)c(F)c1 [Example 31, N-(3-Fluoro-4-methanesulfonylamino-benzyl)-2-(2-methoxy-4-methyl-phenoxy)-acetamide] | 
> 10000 nM | CS(=O)(=O)Nc1ccc(CNC(=O)COc2ccc(C(F)(F)F)cc2I)cc1F [Example 39, N-(3-Fluoro-4-methanesulfonylamino-benzyl)-2-(2-iodo-4-trifluoromethyl-phenoxy)-acetamide] | 
19 nM | C#Cc1cc(CNC(=O)COc2ccc(C(C)(C)C)cc2)cc(F)c1NS(C)(=O)=O [Example 6, 2-(4-tert-Butylphenoxy)-N-(3-ethynyl-5-fluoro-4-methanesulfonylaminobenzyl)acetamide] | inhibition in vivo at 0.1 mg/kg ([1]; Dose 0.1 mg/kg intraperitoneally): 41%
1500 nM | CC(C)(C)c1ccc(SCC(=O)NCc2ccc(NS(C)(=O)=O)c(F)c2)cc1 [Example 19, 2-(4-tert-Butyl-phenylsulfanyl)-N-(3-fluoro-4-methanesulfonylaminobenzyl)-acetamide] | 
110 nM | CC(C)(C)c1ccc(OCC(=O)NCc2ccc(NS(C)(=O)=O)cc2)cc1 [Example 1, 2-(4-tert-Butylphenoxy)-N-(4-methanesulfonylaminobenzyl)acetamide] | 
130 nM | CCC(C)(C)c1ccc(OCC(=O)NCc2ccc(NS(C)(=O)=O)c(F)c2)cc1 [Example 57, N-(3-Fluoro-4-methanesulfonylaminobenzyl)-2-(4-(1,1-dimethylpropyl)phenoxy)acetamide] | 
> 10000 nM | CS(=O)(=O)Nc1ccc(CNC(=O)COc2ccc(-c3ccccc3Cl)cc2)cc1F [Example 60, 2-(2'-Chloro-biphenyl-4-yloxy)-N-(3-fluoro-4-methanesulfonylaminobenzyl)-acetamide] | 
> 10000 nM | CS(=O)(=O)Nc1ccc(CNC(=O)COc2cccc(Cl)c2)cc1F [Example 42, N-(3-Fluoro-4-methanesulfonylaminobenzyl)-2-(3-chlorophenoxy)acetamide] | 
1700 nM | CS(=O)(=O)Nc1ccc(CNC(=O)COc2cccc(Br)c2)cc1F [Example 46, 2-(3-Bromo-phenoxy)-N-(3-fluoro-4-methanesulfonylamino-benzyl)-acetamide] | 
130 nM | CCc1cc(CNC(=O)COc2ccc(C(C)(C)C)cc2)cc(F)c1NS(C)(=O)=O [Example 7, 2-(4-tert-Butylphenoxy)-N-(3-ethyl-5-fluoro-4-methanesulfonylaminobenzyl)acetamide] | 
210 nM | C[C@@H](N/C(COc1ccc(C(C)(C)C)cc1)=N/C#N)c1ccc(NS(C)(=O)=O)cc1 [Example 17, (R)-2-(4-tert-Butylphenoxy)-N-[1-(4-methanesulfonylaminophenyl)ethyl]-N'-cyanoacetamidine] | 
> 10000 nM | CS(=O)(=O)Nc1ccc(CNC(=O)COc2cc(Cl)cc(Cl)c2)cc1F [Example 33, N-(3-Fluoro-4-methanesulfonylaminobenzyl)-2-(3,5-dichlorophenoxy)acetamide] | 
